Activity calls are given as the source filed them. No cut-off for these calls is given here.
Assays:
[1] = molecular target: T1, Type-1 angiotensin II receptor (Homo sapiens) (UniProt P30556); experiment: (§1) Displacement of [125-I]-[Sar1, AngII from AT1R (unknown origin) expressed in Escherichia coli BL 21 (DE3) incubated for 2 hrs by radioimmunoassay
T1 sequence (whole entry): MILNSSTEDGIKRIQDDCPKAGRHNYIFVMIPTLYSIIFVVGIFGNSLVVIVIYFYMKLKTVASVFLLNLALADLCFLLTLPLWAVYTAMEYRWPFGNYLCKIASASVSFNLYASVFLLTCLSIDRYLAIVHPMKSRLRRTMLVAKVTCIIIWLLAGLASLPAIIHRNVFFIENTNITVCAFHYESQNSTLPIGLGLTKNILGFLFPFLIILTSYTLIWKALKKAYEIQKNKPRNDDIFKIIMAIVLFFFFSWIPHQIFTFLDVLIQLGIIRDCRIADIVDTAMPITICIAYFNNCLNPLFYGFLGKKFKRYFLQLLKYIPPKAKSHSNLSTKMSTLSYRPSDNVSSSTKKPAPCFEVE

Rattus norvegicus [2] = experiment: Antihypertensive activity against two-kidney two clip renovascular hypertensive Sprague-Dawley rat model assessed as decrease in systolic blood pressure at 8.3 mg/kg, po measured after 4 days of treatment by noninvasive sphygmomanometry; assay type: functional, organism-based; conditions: time 4.0 day
[3] = molecular target: T2, Type-1 angiotensin II receptor (Homo sapiens, UniProt P30556); experiment: Binding affinity to AT1R (unknown origin) expressed in Escherichia coli strain BL 21 (DE3) incubated for 20 mins by SDS PAGE analysis
T2 sequence (P30556 whole entry): T1 sequence (whole entry)

[4] = molecular target: T2, Type-1 angiotensin II receptor; experiment: as §1
Rattus norvegicus [5] = experiment: Antihypertensive activity against two-kidney two clip renovascular hypertensive Sprague-Dawley rat model assessed as decrease in diastolic blood pressure at 15 to 30 mg/kg, po measured after 4 days of treatment by noninvasive sphygmomanometry; assay type: functional, organism-based; conditions: dose 15-30 mg/kg, time 4.0 day
[6] = Cmax in two-kidney two clip renovascular hypertensive Sprague-Dawley rat model at 30 mg/kg, po by HPLC-MS/MS analysis; assay type: ADME, organism-based; parameters: route oral, dose 30 mg/kg; conditions: in vivo
[7] = Cmax in two-kidney two clip renovascular hypertensive Sprague-Dawley rat model at 15 mg/kg, po by HPLC-MS/MS analysis; assay type: ADME, organism-based; parameters: route oral, dose 15 mg/kg; conditions: in vivo
[8] = Cmax in two-kidney two clip renovascular hypertensive Sprague-Dawley rat model at 5 mg/kg, po by HPLC-MS/MS analysis; assay type: ADME, organism-based; parameters: route oral, dose 5 mg/kg; conditions: in vivo
[9] = AUC (0-t) in two-kidney two clip renovascular hypertensive Sprague-Dawley rat model at 30 mg/kg, po by HPLC-MS/MS analysis; assay type: ADME, organism-based; parameters: dose 30 mg/kg; conditions: in vivo
[10] = AUC (0-t) in two-kidney two clip renovascular hypertensive Sprague-Dawley rat model at 15 mg/kg, po by HPLC-MS/MS analysis; assay type: ADME, organism-based; parameters: dose 15 mg/kg; conditions: in vivo
[11] = AUC (0-t) in two-kidney two clip renovascular hypertensive Sprague-Dawley rat model at 5 mg/kg, po by HPLC-MS/MS analysis; assay type: ADME, organism-based; parameters: dose 5 mg/kg; conditions: in vivo
[12] = AUC (0-infinity) in two-kidney two clip renovascular hypertensive Sprague-Dawley rat model at 30 mg/kg, po by HPLC-MS/MS analysis; assay type: ADME, organism-based; parameters: route oral, time infinity, dose 30 mg/kg; conditions: in vivo
[13] = AUC (0-infinity) in two-kidney two clip renovascular hypertensive Sprague-Dawley rat model at 15 mg/kg, po by HPLC-MS/MS analysis; assay type: ADME, organism-based; parameters: time infinity, route oral, dose 15 mg/kg; conditions: in vivo
[14] = AUC (0-infinity) in two-kidney two clip renovascular hypertensive Sprague-Dawley rat model at 5 mg/kg, po by HPLC-MS/MS analysis; assay type: ADME, organism-based; parameters: route oral, time infinity, dose 5 mg/kg; conditions: in vivo
Rattus norvegicus [15] = experiment: Antihypertensive activity against two-kidney two clip renovascular hypertensive Sprague-Dawley rat model assessed as decrease in systolic blood pressure at 15 to 30 mg/kg, po measured after 4 days of treatment by noninvasive sphygmomanometry; assay type: functional, organism-based; conditions: dose 15-30 mg/kg, time 4.0 day
[16] = Toxicity in two-kidney two clip renovascular hypertensive Sprague-Dawley rat model assessed as heart rate at 15 to 30 mg/kg, po measured after 4 days of treatment by noninvasive sphygmomanometry; assay type: organism-based; conditions: in vivo, 96 h, dose 15-30 mg/kg, time 4 day

NC[C@H](O)c1ccc(O)c(O)c1
Activity [1]: inactive

CCCCC(=O)N(Cc1ccc(-c2ccccc2-c2nnn[nH]2)cc1)[C@H](C(=O)O)C(C)C
Activity (Rattus norvegicus [2]): Active

CCOC(=O)[C@@H](Cc1ccc(F)cc1)NC(=O)[C@@H](CC1CCCCC1)NC(=O)[C@@H](C)NC(=O)/C=C/c1ccc(O)c(O)c1
Kd [3]: 0.49 nM | IC50 [4]: 19.6 nM | Activity (Rattus norvegicus [5]): Active | Cmax [6]: 446 ng/mL | Cmax [7]: 220 ng/mL | Cmax [8]: 80.6 ng/mL | AUCt [9]: 34243 µg·min/L | AUCt [10]: 18123.5 µg·min/L | AUCt [11]: 5707.6 µg·min/L | AUC [12]: 35096.1 µg·min/L | AUC [13]: 19332.5 µg·min/L | AUC [14]: 6088 µg·min/L | Activity (Rattus norvegicus [15]): Active | Activity [16]: Non-Toxic

O=C(O)/C=C/c1ccc(O)c(O)c1 [CAFFEIC ACID]
IC50 [4]: 125 nM

Cc1cc(Cn2cnc3c2C[C@@H](C(=O)O)N(C(=O)C(c2ccccc2)c2ccccc2)C3)ccc1N(C)C
Activity [1]: inactive
